The source of these data is ChEMBL document CHEMBL6153059, “Discovery of a Potent Triazole-Based Reversible Targeted Covalent Inhibitor of Cruzipain” (ACS Med Chem Lett, 2025).

What is called inhibition is the share of the control response that was lost under treatment. Broadly, the IC50 is the point on the concentration scale where inhibition reaches its midpoint. What is called pKa is the negative logarithm of the acid dissociation constant.

The target in series [1] is Cruzipain (Trypanosoma cruzi) (UniProt P25779). Put plainly: Inhibition of Trypanosoma cruzi cruzain at 100 uM using Z-FR-AMC as substrate preincubated for 10 mins followed by substrate addition and measured every 5 secs for 10 mins by fluorimetry. Conditions: time 20.0 min.
Chain of Cruzipain (Trypanosoma cruzi) (P25779 123-467 limits assumed): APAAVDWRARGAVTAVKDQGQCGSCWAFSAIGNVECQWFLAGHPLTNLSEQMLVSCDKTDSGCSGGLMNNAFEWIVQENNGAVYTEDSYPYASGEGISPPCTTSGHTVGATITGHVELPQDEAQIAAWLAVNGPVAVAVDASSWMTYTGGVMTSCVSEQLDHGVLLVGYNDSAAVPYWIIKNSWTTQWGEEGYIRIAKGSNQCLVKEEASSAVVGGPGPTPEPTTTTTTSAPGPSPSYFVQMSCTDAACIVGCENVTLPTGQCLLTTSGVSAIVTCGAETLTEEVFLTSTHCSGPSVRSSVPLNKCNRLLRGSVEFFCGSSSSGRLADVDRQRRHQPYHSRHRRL
Series [2] shares this target. The series can be described thus: Inhibition of Trypanosoma cruzi cruzain at 100 uM using Z-FR-AMC as substrate measured every 5 secs for 10 mins by fluorimetry.
The next series deals with Cruzipain (Trypanosoma cruzi, UniProt P25779). Put plainly: Inhibition of Trypanosoma cruzi cruzain using Z-FR-AMC as substrate preincubated for 10 mins followed by substrate addition and measured every 5 secs for 10 mins by fluorimetry.
Chain of Cruzipain (P25779 whole entry): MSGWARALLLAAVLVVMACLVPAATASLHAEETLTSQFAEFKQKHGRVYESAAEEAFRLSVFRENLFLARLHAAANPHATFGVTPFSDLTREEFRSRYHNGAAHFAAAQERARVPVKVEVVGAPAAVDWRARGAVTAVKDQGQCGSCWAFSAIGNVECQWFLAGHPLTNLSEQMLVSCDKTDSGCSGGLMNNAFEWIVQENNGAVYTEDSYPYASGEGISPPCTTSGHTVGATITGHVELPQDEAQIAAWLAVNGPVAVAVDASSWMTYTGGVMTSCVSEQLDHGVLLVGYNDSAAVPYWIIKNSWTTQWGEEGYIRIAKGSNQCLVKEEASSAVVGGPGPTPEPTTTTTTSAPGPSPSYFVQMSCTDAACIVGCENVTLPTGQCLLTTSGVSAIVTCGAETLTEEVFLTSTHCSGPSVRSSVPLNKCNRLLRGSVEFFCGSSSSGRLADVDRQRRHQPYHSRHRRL
Series [3] is described as follows: Dissociation constant, pKa of the compound for carboxyl group by potentiometric titration analysis. Type of series: physicochemical.
The next series concerns the target cathepsin L (Homo sapiens, UniProt P07711). Put plainly: Inhibition of recombinant human cathepsin L expressed in FreeStyle 293-F cells using Z-FR-AMC as substrate at 100 uM preincubated for 10 mins followed by substrate addition and measured for 20 mins by fluorimetry. Conditions: probe Z-FR-AMC, time 30 min.
The subject of series [4] is Trypanosoma cruzi. The series can be described thus: Antitrypanosomal activity against Trypanosoma cruzi Tulahuen trypomastigotes expressing Escherichia coli beta-galactosidase infected in African green monkey Vero cells incubated for 72 hrs by ONPG dye based microplate reader analysis. The format is functional, organism-based.
Series [5] concerns Trypanosoma cruzi. Put plainly: Antitrypanosomal activity against Trypanosoma cruzi Tulahuen trypomastigotes expressing Escherichia coli beta-galactosidase infected in African green monkey Vero cells at 10 uM incubated for 72 hrs by ONPG dye based microplate reader analysis. Type of series: functional.
Series [6] deals with Trypanosoma cruzi. Put plainly: Antitrypanosomal activity against Trypanosoma cruzi Tulahuen trypomastigotes expressing Escherichia coli beta-galactosidase infected in African green monkey Vero cells at 50 uM incubated for 72 hrs by ONPG dye based microplate reader analysis. The format is functional.
A short description of series [7]: Cytotoxicity against African green monkey Vero cells assessed as cell viability at 50 uM incubated for 96 hrs by resazurin dye based fluorescence analysis relative to control. To be noted: chlorocebus sabaeus, read-out: Activity. The format is toxicity. (In general: The colour change of resazurin is a common sign of viable cells or microbes.)
Series [8] is described as follows: Dissociation constant, pKa of the compound for secondary ammonium by potentiometric titration analysis. The format is physicochemical.
Series [9] concerns the target Cruzipain (Trypanosoma cruzi) (UniProt P25779). Put plainly: Covalent reversible inhibition of Trypanosoma cruzi cruzain using Z-FR-AMC as substrate at 0.1XIC50 and measured at 10 mins post-dilution by jump dilution assay.
The target is the same in series [10]. Put plainly: Covalent reversible inhibition of Trypanosoma cruzi cruzain assessed as recovery of enzyme activity using Z-FR-AMC as substrate at 0.1XIC50 and measured for 2 hrs by jump dilution assay.

Active and inactive are the calls of the source. The calls are words filed in the database; no cut-off is given here.

Chain of cathepsin L (P07711 whole entry): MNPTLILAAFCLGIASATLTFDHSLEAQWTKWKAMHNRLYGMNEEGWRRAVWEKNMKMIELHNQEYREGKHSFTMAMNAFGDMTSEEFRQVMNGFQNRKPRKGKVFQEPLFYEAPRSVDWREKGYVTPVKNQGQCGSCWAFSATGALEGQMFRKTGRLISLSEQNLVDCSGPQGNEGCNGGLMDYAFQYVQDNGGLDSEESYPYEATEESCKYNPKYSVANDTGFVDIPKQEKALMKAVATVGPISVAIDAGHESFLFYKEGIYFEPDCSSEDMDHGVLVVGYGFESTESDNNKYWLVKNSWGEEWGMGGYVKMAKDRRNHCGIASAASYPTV

On to `CC(C)[C@H](CS)n1cc(C(NCc2ccc3c(c2)OCO3)C2CCCCC2)nn1` (stereo partly drawn), for which the inhibition in [1] came out at 43%; in [2] it was 6%.
On Cruzipain, `O=C(O)[C@H](CSC(c1ccccc1)(c1ccccc1)c1ccccc1)n1cc(C(NCc2ccc3c(c2)OCO3)C2CCCCC2)nn1` (stereo partly drawn) registered an IC50 of 6 µM. In [3], this compound returned a pKa of 3. Moreover, at cathepsin L, the inhibition at 20 min, 100 µM turned out to be 100%.
In the case of `NCCCC[C@@H](C=O)n1cc(C(NCc2ccc3c(c2)OCO3)C2CCCCC2)nn1` (stereo partly drawn), the IC50 in the series on Trypanosoma cruzi [4] was 3.2 µM; on Cruzipain, 3.3 µM.
For the compound `SC[C@@H](Cc1ccccc1)n1cc(C(NCc2ccc3c(c2)OCO3)C2CCCCC2)nn1` (stereo partly drawn), the IC50 against Cruzipain is 7 µM. The inhibition in series [1] was determined as 79%; in series [2], 12%. The inhibition at 20 min, 100 µM at cathepsin L was 0%.
Take `O=C(O)[C@H](CS)n1cc(C(NCc2ccc3c(c2)OCO3)C2CCCCC2)nn1` (stereo partly drawn): the figures for the IC50 in the series with Trypanosoma cruzi [4] and against Cruzipain were 6.67 µM and 0.028 µM, respectively. In the series on Trypanosoma cruzi [5], this compound showed an inhibition at 10 µM of 76%. Testing at 50 µM with Trypanosoma cruzi [6] gave an inhibition of 98%. Further, the inhibition in series [1] was 100%; in series [2], 13%. In [7], the viability at 96 h, 50 µM came to 80%. Also, the pKa amounted to 4 in [3] and 8.1 in [8]. For the same compound, the inhibition at 20 min, 100 µM at cathepsin L turned out to be 0%. Also, the inhibition entry in series [9] is “inactive”. The inhibition entry in series [10] is “Active”.
Turning to `COC(=O)[C@H](CS)n1cc(C(NCc2ccc3c(c2)OCO3)C2CCCCC2)nn1` (stereo partly drawn), the inhibition in series [1] came out at 53%; in series [2] it was 6%.
On the same counts, the results for `CCOC(=O)[C@H](CS)n1cc(C(NCc2ccc3c(c2)OCO3)C2CCCCC2)nn1` (stereo partly drawn) are 46% and 3%.
Turning to `COc1ccc(COC(=O)[C@H](CS)n2cc(C(NCc3ccc4c(c3)OCO4)C3CCCCC3)nn2)cc1` (stereo partly drawn), the inhibition in series [1] worked out at 28%.
